Measured values: patent publication US20250084039A1, “4-SUBSTITUTED AMINOISOQUINOLINE DERIVATIVES” (Purdue Research Foundation, priority 2016, published 2025)
Read-outs that look alike come from different tables or passages of the source.

Tests used:
AKT1 = AKT1 (Homo sapiens (Human), UniProt P31749); test: Reaction Biology HotSpot kinase assay; type: biochemical; settings: 500 nM compound; read-out: Percentage kinase inhibition AKT1
How it was run: (§1)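 Compounds were screened at one concentration, 500 nM, in a radiometric kinase reaction. After a 20-minute preincubation with enzyme and substrate in pH 7.5 HEPES buffer (1% DMSO), the mixture received 100 μM ATP containing [γ-33P]ATP and was left 2 h at room temperature.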

ALK = ALK (Homo sapiens (Human), UniProt Q9UM73); test: Reaction Biology HotSpot kinase assay; type: biochemical; settings: 500 nM compound; read-out: Percentage kinase inhibition ALK
How it was run: (§2)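 Each compound was tested at 500 nM, with 33P incorporation from ATP (100 μM final, including [γ-33P]ATP) measured by P81 paper capture after a 2 h room-temperature reaction.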

AXL = AXL (Homo sapiens (Human), UniProt P30530); test: Reaction Biology HotSpot kinase assay; type: biochemical; settings: 500 nM compound; read-out: Percentage kinase inhibition AXL
How it was run: as §2

BRAF = BRAF (Homo sapiens (Human), UniProt P15056); test: Reaction Biology HotSpot kinase assay; type: biochemical; settings: 500 nM compound; read-out: Percentage kinase inhibition BRAF
How it was run: as §2

BTK = BTK (Homo sapiens (Human), UniProt Q06187); test: Reaction Biology HotSpot kinase assay; type: biochemical; settings: 500 nM compound; read-out: Percentage kinase inhibition BTK
How it was run: as §2

EGFR = EGFR (Homo sapiens (Human), UniProt P00533); test: Reaction Biology HotSpot kinase assay; type: biochemical; settings: 500 nM compound; read-out: Percentage kinase inhibition EGFR
How it was run: as §2

EPHA5 = EPHA5 (Homo sapiens (Human), UniProt P54756); test: Reaction Biology HotSpot kinase assay; type: biochemical; settings: 500 nM compound; read-out: Percentage kinase inhibition EPHA5
How it was run: as §2

EPHB2 = EPHB2 (Homo sapiens (Human), UniProt P29323); test: Reaction Biology HotSpot kinase assay; type: biochemical; settings: 500 nM compound; read-out: Percentage kinase inhibition EPHB2
How it was run: as §2

ERBB2/HER2 = ERBB2/HER2 (Homo sapiens (Human), UniProt P04626); test: Reaction Biology HotSpot kinase assay; type: biochemical; settings: 500 nM compound; read-out: Percentage kinase inhibition ERBB2/HER2
How it was run: as §2

FGFR1 = FGFR1 (Homo sapiens (Human), UniProt P11362); test: Reaction Biology HotSpot kinase assay; type: biochemical; settings: 500 nM compound; read-out: Percentage kinase inhibition FGFR1
How it was run: as §1

FGR = FGR (Homo sapiens (Human), UniProt P09769); test: Reaction Biology HotSpot kinase assay; type: biochemical; settings: 500 nM compound; read-out: Percentage kinase inhibition FGR
How it was run: as §2

FLT1/VEGFR1 = FLT1/VEGFR1 (Homo sapiens (Human), UniProt P17948); test: Reaction Biology HotSpot kinase assay; type: biochemical; settings: 500 nM compound; read-out: Percentage kinase inhibition FLT1/VEGFR1
How it was run: as §2

FLT3 = FLT3 (Homo sapiens (Human), UniProt P36888); test: Reaction Biology HotSpot kinase assay; type: biochemical; settings: for inhibition at 0.5 µM: read-out: % inhibition of FLT3 activity
How it was run: as §1

FLT4/VEGFR3 = FLT4/VEGFR3 (Homo sapiens (Human), UniProt P35916); test: Reaction Biology HotSpot kinase assay; type: biochemical; settings: 500 nM compound; read-out: Percentage kinase inhibition FLT4/VEGFR3
How it was run: as §2

KDR/VEGFR2 = KDR/VEGFR2 (Homo sapiens (Human), UniProt P35968); test: Reaction Biology HotSpot kinase assay; type: biochemical; settings: 500 nM compound; read-out: Percentage kinase inhibition KDR/VEGFR2
How it was run: as §2

PDGFRa = PDGFRa (Homo sapiens (Human), UniProt P16234); test: Reaction Biology HotSpot kinase assay; type: biochemical; settings: 500 nM compound; read-out: Percentage kinase inhibition PDGFRa
How it was run: as §2

PKCa = PKCa (Homo sapiens (Human), UniProt P17252); test: Reaction Biology HotSpot kinase assay; type: biochemical; settings: 500 nM compound; read-out: Percentage kinase inhibition PKCa
How it was run: as §2

ROS/ROS1 = ROS/ROS1 (Homo sapiens (Human), UniProt P08922); test: Reaction Biology HotSpot kinase assay; type: biochemical; settings: 500 nM compound; read-out: Percentage kinase inhibition ROS/ROS1
How it was run: as §2

TIE2/TEK = TIE2/TEK (Homo sapiens (Human), UniProt Q02763); test: Reaction Biology HotSpot kinase assay; type: biochemical; settings: 500 nM compound; read-out: Percentage kinase inhibition TIE2/TEK
How it was run: as §2

TRKB = TRKB (Homo sapiens (Human), UniProt Q16620); test: Reaction Biology HotSpot kinase assay; type: biochemical; settings: 500 nM compound; read-out: Percentage kinase inhibition TRKB
How it was run: as §2

YES/YES1 = YES/YES1 (Homo sapiens (Human), UniProt P07947); test: Reaction Biology HotSpot kinase assay; type: biochemical; settings: 500 nM compound; read-out: Percentage kinase inhibition YES/YES1
How it was run: as §2

c-MER = c-MER (Homo sapiens (Human), UniProt Q12866); test: Reaction Biology HotSpot kinase assay; type: biochemical; settings: 500 nM compound; read-out: Percentage kinase inhibition c-MER
How it was run: as §2

c-Met = c-Met (Homo sapiens (Human), UniProt P08581); test: Reaction Biology HotSpot kinase assay; type: biochemical; settings: 500 nM compound; read-out: Percentage kinase inhibition c-Met
How it was run: as §2

K562 = test: IC50 proliferation assay (Alamar Blue, 72 h); type: cell-based; settings: Homo sapiens
MV4-11 = test: IC50 proliferation assay (Alamar Blue, 72 h); type: cell-based; settings: Homo sapiens, MV4-11, 72 h; read-out: IC50 (proliferation inhibition) Cell line - MV4-11
How it was run: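 Cells seeded ~18 h before treatment with semi-serial compound dilutions made in DMSO then growth medium. After 72 h exposure, Alamar Blue added and read following 4 h further at 37 °C; IC50 for proliferation inhibition.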

[1] = K562, Table 18, read-out: Inhibition of proliferation of K562 cell lines (CML)
[2] = K562, 72 h, read-out: IC50 (proliferation inhibition) Cell line - K562

Chain of AKT1 (P31749 whole entry): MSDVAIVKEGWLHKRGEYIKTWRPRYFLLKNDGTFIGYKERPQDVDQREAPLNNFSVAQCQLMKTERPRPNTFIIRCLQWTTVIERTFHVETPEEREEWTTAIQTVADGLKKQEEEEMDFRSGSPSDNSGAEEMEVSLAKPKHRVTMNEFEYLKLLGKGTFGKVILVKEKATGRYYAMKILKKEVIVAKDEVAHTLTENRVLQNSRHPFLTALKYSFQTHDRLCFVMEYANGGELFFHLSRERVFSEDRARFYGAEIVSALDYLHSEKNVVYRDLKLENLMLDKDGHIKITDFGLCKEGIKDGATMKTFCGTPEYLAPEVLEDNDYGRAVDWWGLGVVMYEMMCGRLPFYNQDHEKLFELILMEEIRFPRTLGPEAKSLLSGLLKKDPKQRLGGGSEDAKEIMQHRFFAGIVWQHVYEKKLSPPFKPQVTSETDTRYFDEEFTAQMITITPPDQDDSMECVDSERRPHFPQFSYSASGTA
Chain of ROS/ROS1 (P08922 28-2347): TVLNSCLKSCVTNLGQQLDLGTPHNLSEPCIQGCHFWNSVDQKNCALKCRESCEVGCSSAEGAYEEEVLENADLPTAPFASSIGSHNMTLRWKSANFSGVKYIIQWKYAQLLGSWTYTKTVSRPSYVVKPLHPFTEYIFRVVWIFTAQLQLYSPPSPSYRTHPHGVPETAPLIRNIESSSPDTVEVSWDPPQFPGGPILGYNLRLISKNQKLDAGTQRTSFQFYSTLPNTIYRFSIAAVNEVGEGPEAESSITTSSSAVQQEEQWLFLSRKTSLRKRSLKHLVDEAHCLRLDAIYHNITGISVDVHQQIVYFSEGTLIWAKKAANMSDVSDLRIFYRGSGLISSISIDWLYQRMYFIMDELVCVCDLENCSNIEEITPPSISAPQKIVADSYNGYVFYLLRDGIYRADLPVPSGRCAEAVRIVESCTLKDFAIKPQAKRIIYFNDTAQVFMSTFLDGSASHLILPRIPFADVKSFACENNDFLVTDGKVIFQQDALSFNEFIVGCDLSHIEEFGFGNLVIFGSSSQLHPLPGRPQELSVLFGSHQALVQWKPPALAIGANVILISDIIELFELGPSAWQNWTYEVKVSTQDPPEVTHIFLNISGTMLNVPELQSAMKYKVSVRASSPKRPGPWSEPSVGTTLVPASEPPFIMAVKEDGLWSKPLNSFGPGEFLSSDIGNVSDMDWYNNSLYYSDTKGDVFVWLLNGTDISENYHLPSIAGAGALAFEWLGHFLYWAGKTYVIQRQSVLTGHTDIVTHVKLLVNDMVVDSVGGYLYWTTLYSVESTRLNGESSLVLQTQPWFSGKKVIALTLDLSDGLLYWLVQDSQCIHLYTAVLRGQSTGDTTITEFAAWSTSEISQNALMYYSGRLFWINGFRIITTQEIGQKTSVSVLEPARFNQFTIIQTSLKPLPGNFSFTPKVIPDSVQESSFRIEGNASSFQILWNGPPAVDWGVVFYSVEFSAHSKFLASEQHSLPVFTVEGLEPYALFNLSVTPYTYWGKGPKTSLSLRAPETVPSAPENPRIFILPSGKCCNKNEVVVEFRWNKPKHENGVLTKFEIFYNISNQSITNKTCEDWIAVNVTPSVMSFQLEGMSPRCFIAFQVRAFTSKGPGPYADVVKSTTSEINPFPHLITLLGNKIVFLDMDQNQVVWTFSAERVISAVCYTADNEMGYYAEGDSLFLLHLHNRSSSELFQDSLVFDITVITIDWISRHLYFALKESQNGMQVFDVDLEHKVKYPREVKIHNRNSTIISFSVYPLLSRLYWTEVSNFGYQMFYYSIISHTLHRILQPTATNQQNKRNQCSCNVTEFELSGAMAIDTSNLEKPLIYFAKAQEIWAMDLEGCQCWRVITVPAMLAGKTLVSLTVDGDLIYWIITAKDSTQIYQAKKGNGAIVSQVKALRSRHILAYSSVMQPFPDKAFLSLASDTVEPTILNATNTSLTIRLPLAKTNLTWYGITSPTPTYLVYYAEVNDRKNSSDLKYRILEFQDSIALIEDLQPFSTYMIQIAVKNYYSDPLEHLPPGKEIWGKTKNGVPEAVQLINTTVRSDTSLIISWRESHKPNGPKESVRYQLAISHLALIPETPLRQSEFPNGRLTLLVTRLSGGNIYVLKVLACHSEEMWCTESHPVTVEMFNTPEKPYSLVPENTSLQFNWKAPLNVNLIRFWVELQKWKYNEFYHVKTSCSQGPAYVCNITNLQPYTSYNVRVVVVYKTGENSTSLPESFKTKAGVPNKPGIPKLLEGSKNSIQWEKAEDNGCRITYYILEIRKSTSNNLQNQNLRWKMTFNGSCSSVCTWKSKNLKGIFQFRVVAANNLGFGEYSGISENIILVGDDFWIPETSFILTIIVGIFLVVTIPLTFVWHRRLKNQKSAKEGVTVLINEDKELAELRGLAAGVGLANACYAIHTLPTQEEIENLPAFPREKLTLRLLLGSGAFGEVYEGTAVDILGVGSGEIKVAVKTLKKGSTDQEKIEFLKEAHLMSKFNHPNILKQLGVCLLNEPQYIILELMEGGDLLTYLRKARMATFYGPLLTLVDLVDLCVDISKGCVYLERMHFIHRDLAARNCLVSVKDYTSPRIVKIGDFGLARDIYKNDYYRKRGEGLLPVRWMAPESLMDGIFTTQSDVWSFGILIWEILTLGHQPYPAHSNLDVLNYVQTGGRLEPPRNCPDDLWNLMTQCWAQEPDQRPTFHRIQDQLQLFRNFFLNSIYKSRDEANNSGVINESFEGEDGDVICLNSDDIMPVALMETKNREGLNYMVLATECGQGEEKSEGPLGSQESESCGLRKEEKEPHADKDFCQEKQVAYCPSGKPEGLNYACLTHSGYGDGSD
Chain of KDR/VEGFR2 (P35968 20-1356): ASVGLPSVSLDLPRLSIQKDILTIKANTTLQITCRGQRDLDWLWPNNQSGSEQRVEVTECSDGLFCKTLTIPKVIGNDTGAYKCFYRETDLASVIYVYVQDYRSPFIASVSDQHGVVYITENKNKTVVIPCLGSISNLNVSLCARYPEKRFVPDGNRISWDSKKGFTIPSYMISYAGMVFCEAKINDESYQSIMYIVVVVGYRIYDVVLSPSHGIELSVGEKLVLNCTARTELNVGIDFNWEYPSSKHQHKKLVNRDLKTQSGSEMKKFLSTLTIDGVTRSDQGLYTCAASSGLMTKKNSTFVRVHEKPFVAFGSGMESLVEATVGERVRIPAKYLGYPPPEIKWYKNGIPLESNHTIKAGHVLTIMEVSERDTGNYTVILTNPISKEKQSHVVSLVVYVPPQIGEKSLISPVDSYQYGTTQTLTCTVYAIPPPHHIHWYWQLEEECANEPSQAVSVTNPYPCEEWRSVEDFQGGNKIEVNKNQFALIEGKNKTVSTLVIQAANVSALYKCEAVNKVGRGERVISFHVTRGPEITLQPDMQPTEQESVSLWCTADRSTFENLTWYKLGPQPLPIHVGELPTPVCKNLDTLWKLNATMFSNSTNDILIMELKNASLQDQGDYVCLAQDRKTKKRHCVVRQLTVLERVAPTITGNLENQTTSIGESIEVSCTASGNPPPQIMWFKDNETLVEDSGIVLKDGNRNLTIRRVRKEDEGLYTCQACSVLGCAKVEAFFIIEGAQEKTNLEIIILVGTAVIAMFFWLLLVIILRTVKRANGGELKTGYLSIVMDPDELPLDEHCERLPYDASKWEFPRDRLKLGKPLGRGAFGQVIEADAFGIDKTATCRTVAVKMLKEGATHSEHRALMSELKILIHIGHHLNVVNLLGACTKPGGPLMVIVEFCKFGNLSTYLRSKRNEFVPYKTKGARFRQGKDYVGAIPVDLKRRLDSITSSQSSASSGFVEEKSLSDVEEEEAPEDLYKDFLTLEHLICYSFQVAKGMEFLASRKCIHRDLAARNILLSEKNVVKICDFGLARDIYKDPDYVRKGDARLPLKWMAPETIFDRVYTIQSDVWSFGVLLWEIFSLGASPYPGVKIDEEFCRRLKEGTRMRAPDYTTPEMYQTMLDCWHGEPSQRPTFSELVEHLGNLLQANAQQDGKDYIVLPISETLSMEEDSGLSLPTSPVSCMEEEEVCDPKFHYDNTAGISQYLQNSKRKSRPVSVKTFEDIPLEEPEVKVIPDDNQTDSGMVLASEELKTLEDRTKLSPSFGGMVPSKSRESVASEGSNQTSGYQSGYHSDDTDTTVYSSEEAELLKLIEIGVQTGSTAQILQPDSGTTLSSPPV

| Compound | inhibition at 0.5 µM (AKT1) [%] | inhibition at 0.5 µM (ALK) [%] | inhibition at 0.5 µM (AXL) [%] | inhibition at 0.5 µM (BRAF) [%] | inhibition at 0.5 µM (BTK) [%] | inhibition at 0.5 µM (EGFR) [%] | inhibition at 0.5 µM (EPHA5) [%] | inhibition at 0.5 µM (EPHB2) [%] | inhibition at 0.5 µM (ERBB2/HER2) [%] | inhibition at 0.5 µM (FGFR1) [%] | inhibition at 0.5 µM (FGR) [%] | inhibition at 0.5 µM (FLT1/VEGFR1) [%] | inhibition at 0.5 µM (FLT4/VEGFR3) [%] | inhibition at 0.5 µM (KDR/VEGFR2) [%] | inhibition at 0.5 µM (PDGFRa) [%] | inhibition at 0.5 µM (PKCa) [%] | inhibition at 0.5 µM (ROS/ROS1) [%] | inhibition at 0.5 µM (TIE2/TEK) [%] | inhibition at 0.5 µM (TRKB) [%] | inhibition at 0.5 µM (YES/YES1) [%] | further results |
| --- | --- | --- | --- | --- | --- | --- | --- | --- | --- | --- | --- | --- | --- | --- | --- | --- | --- | --- | --- | --- | --- |
| Cc1ccc(C(=O)Nc2ccc(CN3CCN(C)CC3)c(C(F)(F)F)c2)cc1C#Cc1c(N)ncc2ccc(Cl)cc12 [HSN286] | 0 | 0 | 3 | 97 | 41 | 44 | 96 | 96 | 25 | 98 | 100 | 86 | 98 | 95 | 93 | 5 | 10 | 97 | 79 | 100 | inhibition at 0.5 µM (FLT3): 97%; inhibition at 0.5 µM (c-MER): 0%; inhibition at 0.5 µM (c-Met): 20%; IC50 (K562; [1]): 3.5 ± 0.02 nM; IC50 (MV4-11): 0.4 nM |
| COc1cc2nc(N)nc(C#Cc3cc(C(=O)Nc4ccc(CN5CCN(C)CC5)c(C(F)(F)F)c4)ccc3C)c2cc1OC [HSN325] | 0 | 2 | 3 | 38 | 4 | 0 | 30 | 3 | 4 | 58 | 39 | 42 | 42 | 90 | 53 | 5 | 0 | 47 | 0 | 41 | % inhibition of FLT3 activity (FLT3; 500 nM compound): 34%; inhibition at 0.5 µM (FLT3; 500 nM compound): 33%; inhibition at 0.5 µM (c-MER): 0%; inhibition at 0.5 µM (c-Met): 15%; IC50 (K562; [2]): 444 nM; IC50 (K562; [1]): 44 ± 0.1 nM; IC50 (MV4-11): 135 nM |
| Cc1ccc(C(=O)Nc2ccc(CN3CCN(C)CC3)c(C(F)(F)F)c2)cc1C#Cc1cnc(N)c2ccccc12 [HSN334, 3-((1-aminoisoquinolin-4-yl)ethynyl)-4-methyl-N-(4-((4-methylpiperazin-1-yl)methyl)-3-(trifluoromethyl)phenyl)benzamide] | 0 | 0 | 5 | 96 | 46 | 61 | 97 | 98 | 31 | 96 | 100 | 79 | 79 | 94 | 86 | 0 | 0 | 99 | 41 | 100 | % inhibition of FLT3 activity (FLT3): 100%; inhibition at 0.5 µM (FLT3): 99%; inhibition at 0.5 µM (c-MER): 0%; inhibition at 0.5 µM (c-Met): 14%; IC50 (K562; [2]): 6 nM; IC50 (K562; [1]): 6.1 ± 0.1 nM; IC50 (MV4-11): 1 nM |
